Measured values reported in US7776880B2, “Derivatives of pyrrolizine, indolizine and quinolizine, preparation thereof and therapeutic use thereof” (sanofi-aventis, priority 2006, dated 2010).
Counter-ions that a name gives are not always drawn.

Tested on: not given
Assay: not given
Conditions: not given

| melting point [°C] | Compound |
| --- | --- |
| 138 to 139 | O=C(NC(c1ccccc1)C1CCC2CCCCN21)c1cccc(C(F)(F)F)c1Cl (racemic) (as salt: HCl) [Compound 5, trans-threo-2-Chloro-N-[(octahydroindolizin-3-yl)phenylmethyl]-3-trifluoromethyl-benzamide hydrochloride 1.1] |
| 132 to 134 | O=C(NC(c1ccccc1)C1CCCC2CCCN21)c1cccc(C(F)(F)F)c1Cl (racemic) (as salt: HCl) [Compound 1, trans-threo-2-Chloro-N-[(octahydroindolizin-5-yl)phenylmethyl]-3-trifluoromethyl-benzamide hydrochloride 1:1] |
| 132 to 134 | O=C(N[C@H](c1ccccc1)[C@@H]1CCC[C@H]2CCCN21)c1cccc(C(F)(F)F)c1Cl (racemic) (as salt: HCl) [Compound 2, trans-erythro-2-chloro-N-[(octahydroindolizin-5-yl)phenylmethyl]-3-trifluoromethyl-benzamide hydrochloride 1:1] |

Target: T1, native human transporter GlyT1 (Homo sapiens, UniProt P48067)
T1 construct: SK-N-MC cells (human neuroepithelial cells) expressing the native human transporter GlyT1; endogenous in cells; host or cells: SK-N-MC (human neuroepithelial cells)
T1 sequence (P48067 1-706): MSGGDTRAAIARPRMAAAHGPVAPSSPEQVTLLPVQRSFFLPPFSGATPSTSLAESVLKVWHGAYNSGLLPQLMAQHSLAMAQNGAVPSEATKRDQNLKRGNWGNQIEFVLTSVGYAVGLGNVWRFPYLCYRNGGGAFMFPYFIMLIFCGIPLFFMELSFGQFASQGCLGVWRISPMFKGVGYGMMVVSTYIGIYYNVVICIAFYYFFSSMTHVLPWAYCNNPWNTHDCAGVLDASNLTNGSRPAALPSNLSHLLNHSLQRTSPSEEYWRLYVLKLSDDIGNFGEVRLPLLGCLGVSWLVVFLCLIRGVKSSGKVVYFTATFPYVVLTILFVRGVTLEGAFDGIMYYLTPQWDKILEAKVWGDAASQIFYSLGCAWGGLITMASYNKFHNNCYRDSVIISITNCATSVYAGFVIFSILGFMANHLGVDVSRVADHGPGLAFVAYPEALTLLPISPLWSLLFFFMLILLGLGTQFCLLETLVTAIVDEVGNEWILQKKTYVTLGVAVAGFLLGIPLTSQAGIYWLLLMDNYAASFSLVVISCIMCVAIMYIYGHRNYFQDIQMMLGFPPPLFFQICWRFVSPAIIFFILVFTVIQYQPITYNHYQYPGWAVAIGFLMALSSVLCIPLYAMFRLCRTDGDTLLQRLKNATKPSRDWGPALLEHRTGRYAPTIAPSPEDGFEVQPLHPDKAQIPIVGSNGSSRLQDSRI
Assay: Uptake of [14C]glycine in SK-N-MC cells expressing the native human transporter GlyT1
Assay type: cell-based
Conditions: 10 μM [14C]glycine, 10 min preincubation and 10 min incubation at 37° C., pH 7.4, read-out: IC50, the concentration of the compound which reduces by 50% the specific uptake of glycine
Description: Study of glycine transportation in SK-N-MC cells expressing the native human transporter GlyT1.
The uptake of [^14C]glycine is studied in SK-N-MC cells (human neuroepithelial cells) expressing the native human transporter GlyT1 by measuring the radioactivity incorporated in the presence or absence of the test compound. The cells are cultured as a monolayer for 48 hours in plates pretreated with 0.02% fibronectin. On the day of the experiment, the culture medium is removed and the cells are washed with Krebs-HEPES (4-(2-hydroxyethyl)piperazine-1-ethanesulphonic acid) buffer at pH 7.4. After preincubation for 10 minutes at 37° C. in the presence either of buffer (control batch) or of test compound at various concentrations or of 10 mM of glycine (determination of the non-specific uptake), 10 μM of [^14C]glycine (specific activity 112 mCi/mmol) are subsequently added. Incubation is continued for 10 min at 37° C. and the reaction is halted by washing twice with pH 7.4 Krebs-HEPES buffer. The radioactivity incorporated by the cells is then estimated after adding 100 μl of liquid scintillant and stirring for 1 h. Counting is carried out on a Microbeta Tri-Lux™ counter. The effectiveness of the compound is determined by the IC50, the concentration of the compound which reduces by 50% the specific uptake of glycine, defined by the difference in radioactivity incorporated by the control batch and the batch which received the 10 mM glycine.

| IC50 [nM] | Compound |
| --- | --- |
| 23 | O=C(N[C@H](c1ccccc1)[C@@H]1CCC[C@H]2CCCN21)c1cccc(C(F)(F)F)c1Cl (racemic) [Compound 2, trans-erythro-2-chloro-N-[(octahydroindolizin-5-yl)phenylmethyl]-3-trifluoromethyl-benzamide hydrochloride 1:1] |
| 80 | O=C(NC(c1ccccc1)C1CCCC2CCCN21)c1cccc(C(F)(F)F)c1Cl (racemic) [Compound 1, trans-threo-2-Chloro-N-[(octahydroindolizin-5-yl)phenylmethyl]-3-trifluoromethyl-benzamide hydrochloride 1:1] |
| 3 | O=C(NC(c1ccccc1)C1CCC2CCCCN21)c1cccc(C(F)(F)F)c1Cl (racemic) [Compound 5, trans-threo-2-Chloro-N-[(octahydroindolizin-3-yl)phenylmethyl]-3-trifluoromethyl-benzamide hydrochloride 1.1] |
